Results: ChEMBL document CHEMBL1201862, “PubChem BioAssay data set” (2004)
The source made the active and inactive calls.

Experiments:
[1] = target: T1, Cysteine protease ATG4B (Homo sapiens, UniProt Q9Y4P1); format: functional;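 further: Fluorescence-based dose-response confirmation assay measuring inhibition of ATG4B activity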
T1 sequence (Q9Y4P1 whole entry): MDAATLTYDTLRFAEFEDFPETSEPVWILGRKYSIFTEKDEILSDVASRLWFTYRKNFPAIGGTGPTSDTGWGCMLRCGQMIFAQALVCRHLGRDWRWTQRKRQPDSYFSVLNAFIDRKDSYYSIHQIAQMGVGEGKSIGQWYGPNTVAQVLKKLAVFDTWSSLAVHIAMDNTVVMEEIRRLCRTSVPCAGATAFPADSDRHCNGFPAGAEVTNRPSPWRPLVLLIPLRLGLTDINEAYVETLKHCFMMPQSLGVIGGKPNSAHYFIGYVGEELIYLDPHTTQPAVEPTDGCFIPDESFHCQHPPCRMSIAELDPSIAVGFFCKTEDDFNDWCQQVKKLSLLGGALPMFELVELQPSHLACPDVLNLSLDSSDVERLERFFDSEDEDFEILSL

[2] = target: Phospholipase A2 (Homo sapiens, UniProt P04054); format: functional;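 further: confirmatory dose-response counterscreen on phospholipase A2, testing hits that came from an ultra-high-throughput screen for ATG4B inhibitors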
[3] = target: Tyrosine-protein phosphatase non-receptor type 11 (Homo sapiens, UniProt Q06124); experiment: PTPN11 enzyme inhibitors – biochemical, selectivity assay for STEP inhibitor project, dose response (AID 602367); format: functional; settings: read-out: IC50_Mean
[4] = target: Tyrosine-protein phosphatase non-receptor type 5 (Homo sapiens, UniProt P54829); experiment: PTPN5 enzyme inhibition – biochemical, fluorescence intensity, uHTS hits, confirmation (AID 602372); format: functional; settings: read-out: IC50_Mean
[5] = target: T2, Dual specificity protein phosphatase 3 (Homo sapiens, UniProt P51452); experiment: VHR phosphatase inhibition, dose response, selectivity assay for STEP inhibitor project, biochemical (AID 602374); format: functional; settings: read-out: IC50_Mean
[6] = test system: BJ; experiment: BJ-TERT fibroblast viability loss – cell-based, RAS-independent, luminescence, dose response (AID 1933); format: functional; settings: Homo sapiens
[7] = test system: BJ; experiment: cells; format: functional, cell-based; settings: Homo sapiens
[8] = target: Luciferin 4-monooxygenase (Photinus pyralis, UniProt P08659); experiment: inhibition of purified Photinus pyralis luciferase – biochemical, luminescence, dose response (AID 1891)
[9] = Luminescence Cell-Based Dose Confirmation HTS to Identify Inhibitors of Platelet Dense Granule Release. [Related pubchem assays: 1663 (Primary HTS), 1678 (Summary of Project)]; format: functional
[10] = test system: BJ; experiment: BJ-TERT-LT-ST fibroblast viability loss – cell-based, RAS-independent, luminescence, dose response (AID 1935); format: functional; settings: Homo sapiens;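 further: BJ fibroblasts immortalized with TERT plus LT and ST oncogenes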
[11] = DRD fibroblast viability loss – cell-based, non-viral oncogenic, luminescence, dose response (AID 1934); format: functional; settings: Homo sapiens
[12] = Luminescence Cell-Based Dose Retest to Confirm Inhibitors of Cancer Stem Cells. [Related pubchem assays (depositor defined):AID2717, AID2721]; format: functional; settings: Homo sapiens
[13] = test system: BJ; experiment: growth inhibition of engineered Ras-driven BJ cells – cell-based, alamar blue fluorescence, cherrypicked samples, dose response (AID 2631); format: functional; settings: Homo sapiens;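 further: confirmatory dose-response assay in RAS-dependent BJ fibroblasts engineered with TERT, LT and ST, with cytotoxicity read by fluorescence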
[14] = target: DNA (cytosine-5)-methyltransferase 1 (Homo sapiens, UniProt P26358); experiment: inhibition of DNA methylation by DNMT1 – biochemical, fluorescent molecular beacon, confirmation (AID 602386); format: functional
[15] = Vero cell cytotoxicity, cytotoxicity control for M. tuberculosis inhibitor project, purified and synthesized samples, set 3 (AID 504684); format: functional
[16] = target: T3, High affinity choline transporter 1 (Homo sapiens, UniProt Q9GZV3); experiment: human choline transporter blockers, potency – cell-based, 5-point CRC, membrane potential dye, dose response (AID 504840); format: functional
T3 sequence (Q9GZV3 whole entry): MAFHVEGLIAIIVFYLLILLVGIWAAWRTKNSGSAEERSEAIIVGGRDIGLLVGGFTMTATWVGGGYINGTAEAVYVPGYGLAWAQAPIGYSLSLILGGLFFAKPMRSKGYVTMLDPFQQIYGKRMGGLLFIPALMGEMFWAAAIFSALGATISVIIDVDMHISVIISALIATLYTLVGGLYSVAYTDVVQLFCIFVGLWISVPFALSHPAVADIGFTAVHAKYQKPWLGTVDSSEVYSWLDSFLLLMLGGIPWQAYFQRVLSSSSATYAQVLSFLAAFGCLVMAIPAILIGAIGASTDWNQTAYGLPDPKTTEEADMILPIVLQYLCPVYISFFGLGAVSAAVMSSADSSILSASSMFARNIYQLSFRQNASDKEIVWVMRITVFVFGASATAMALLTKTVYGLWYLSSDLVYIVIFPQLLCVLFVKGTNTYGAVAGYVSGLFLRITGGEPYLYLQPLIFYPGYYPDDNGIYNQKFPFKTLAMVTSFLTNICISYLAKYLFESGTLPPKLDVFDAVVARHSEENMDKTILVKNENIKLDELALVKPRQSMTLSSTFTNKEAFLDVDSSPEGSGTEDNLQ

[17] = target: T3, High affinity choline transporter 1; experiment: human choline transporter blockers, potency – cell-based, 10-point CRC, membrane potential dye, dose response (AID 588401); format: functional;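 further: membrane potential dye fluorescence of choline-evoked depolarization via CHT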
[18] = target: T2, Dual specificity protein phosphatase 3; experiment: VHR1 phosphatase inhibitors, primary screen, biochemical, absorbance, uHTS (AID 1654)
[19] = target: T2, Dual specificity protein phosphatase 3; experiment: VHR1 phosphatase inhibitors, biochemical (AID 1878)
[20] = target: T4, Dual specificity protein phosphatase 6 (Rattus norvegicus, UniProt Q64346); experiment: inhibition of rat DUSP6 enzyme activity – biochemical, in vitro, primary screen (AID 425)
T4 sequence (Q64346 whole entry): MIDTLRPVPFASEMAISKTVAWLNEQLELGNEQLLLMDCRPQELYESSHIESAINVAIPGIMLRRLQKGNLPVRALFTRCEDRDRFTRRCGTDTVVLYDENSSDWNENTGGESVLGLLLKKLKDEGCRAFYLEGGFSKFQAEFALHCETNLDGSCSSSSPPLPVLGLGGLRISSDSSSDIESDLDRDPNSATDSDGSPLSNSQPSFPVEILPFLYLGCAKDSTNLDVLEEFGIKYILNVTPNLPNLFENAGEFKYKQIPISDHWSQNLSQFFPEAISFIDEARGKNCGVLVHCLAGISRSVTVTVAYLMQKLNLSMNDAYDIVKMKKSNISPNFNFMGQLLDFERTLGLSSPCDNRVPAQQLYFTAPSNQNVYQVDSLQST

[21] = NIH-3T3 fibroblast cytotoxicity, dose response, cytotoxicity control, cell-based, fluorescence, Alamar Blue, secondary assay (AID 2327); format: functional;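 further: NIH-3T3 mouse fibroblasts cultured with fluconazole at 8 µg/mL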
[22] = decrease of insulin promoter-GFP reporter – imaging, high-content screening, mouse beta cells (AID 1628); format: functional; settings: MIN6
[23] = test system: Streptococcus sp. 'group A'; experiment: Streptococcus pyogenes SK(-)GAS viability under kanamycin – luminescence, BacTiterGlo, confirmation, counter-screen for streptokinase expression inhibitor project, dose response (AID 1900); format: functional, organism-based
[24] = MIN6 cell viability loss – mouse insulinoma, cytotoxicity control, dose response (AID 2122); format: functional;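 further: confirmatory high-throughput counterscreen run to flag cytotoxic compounds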
[25] = fluconazole-exposed Candida albicans growth modulators – fluorescence, retest, confirmation (AID 2467); format: functional, cell-based
[26] = target: T5, Serine/threonine-protein phosphatase (Candida dubliniensis (strain CD36 / CBS 7987 / NCPF 3949 / NRRLY-17841) (Yeast), UniProt B9W6M3); experiment: blockers of CaCl2-induced CDRE-lacZ signaling – S. cerevisiae, luminescence, secondary, dose response (AID 2388); format: functional, cell-based;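 further: yeast reporter cells carrying a calcineurin-responsive lacZ construct stimulated with calcium chloride; luminescent beta-galactosidase reporter signal in whole cells rather than isolated phosphatase activity; potency for inhibition where a drop in reporter signal means calcineurin blockade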
T5 sequence (B9W6M3 whole entry): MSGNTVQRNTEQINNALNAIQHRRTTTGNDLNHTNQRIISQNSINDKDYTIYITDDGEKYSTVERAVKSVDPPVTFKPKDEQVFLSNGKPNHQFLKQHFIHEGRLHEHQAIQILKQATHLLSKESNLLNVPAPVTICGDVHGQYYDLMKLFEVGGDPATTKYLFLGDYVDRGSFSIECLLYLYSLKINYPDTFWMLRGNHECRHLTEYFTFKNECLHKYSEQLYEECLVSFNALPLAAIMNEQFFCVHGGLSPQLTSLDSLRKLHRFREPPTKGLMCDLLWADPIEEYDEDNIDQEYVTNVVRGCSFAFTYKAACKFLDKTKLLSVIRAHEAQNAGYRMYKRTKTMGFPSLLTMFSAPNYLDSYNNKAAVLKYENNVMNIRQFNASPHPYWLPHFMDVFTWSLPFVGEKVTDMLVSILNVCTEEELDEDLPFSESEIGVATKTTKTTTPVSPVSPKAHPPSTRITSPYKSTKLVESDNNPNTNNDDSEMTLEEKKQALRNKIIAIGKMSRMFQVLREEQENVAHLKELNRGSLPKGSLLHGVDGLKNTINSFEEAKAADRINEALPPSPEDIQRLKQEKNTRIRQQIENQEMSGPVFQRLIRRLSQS

[27] = test system: Streptococcus; experiment: GAS UMAA2166 growth inhibition – luminescence, BacTiterGlo, counter-screen for streptokinase expression inhibitor project, dose response (AID 1915); format: functional, organism-based;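 further: potency for reduction of bacterial viability or growth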
[28] = target: ATP-dependent molecular chaperone HSP82 (Candida albicans (strain WO-1) (Yeast), UniProt C4YTQ8); experiment: steroid-induced GRE reporter decrease in yeast – S. cerevisiae, luminescence, Hsp90 inhibitor project, dose response (AID 2400); format: functional, cell-based;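 further: beta-galactosidase luminescence from glucocorticoid response element reporter as proxy for Hsp90 function; inhibitor potency where signal loss means Hsp90 inhibition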
[29] = target: Ras and Rab interactor 1/Tyrosine-protein kinase ABL1 (Homo sapiens, UniProt P00519+Q13671); format: functional;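 further: biochemical TR-FRET dose-response test measuring inhibition of binding between Rin1 and Abl proteins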
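Wherever AC50 is given: cells exposed to compound for roughly 70 hours or longer before luminescence read.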

T2 sequence (P51452 whole entry): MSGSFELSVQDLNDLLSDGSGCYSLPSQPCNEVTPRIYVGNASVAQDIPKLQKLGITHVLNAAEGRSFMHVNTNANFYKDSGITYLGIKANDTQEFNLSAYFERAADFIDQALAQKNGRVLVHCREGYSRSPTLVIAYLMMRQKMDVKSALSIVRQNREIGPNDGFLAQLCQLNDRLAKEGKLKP
Sequence of Tyrosine-protein phosphatase non-receptor type 5 (P54829 whole entry): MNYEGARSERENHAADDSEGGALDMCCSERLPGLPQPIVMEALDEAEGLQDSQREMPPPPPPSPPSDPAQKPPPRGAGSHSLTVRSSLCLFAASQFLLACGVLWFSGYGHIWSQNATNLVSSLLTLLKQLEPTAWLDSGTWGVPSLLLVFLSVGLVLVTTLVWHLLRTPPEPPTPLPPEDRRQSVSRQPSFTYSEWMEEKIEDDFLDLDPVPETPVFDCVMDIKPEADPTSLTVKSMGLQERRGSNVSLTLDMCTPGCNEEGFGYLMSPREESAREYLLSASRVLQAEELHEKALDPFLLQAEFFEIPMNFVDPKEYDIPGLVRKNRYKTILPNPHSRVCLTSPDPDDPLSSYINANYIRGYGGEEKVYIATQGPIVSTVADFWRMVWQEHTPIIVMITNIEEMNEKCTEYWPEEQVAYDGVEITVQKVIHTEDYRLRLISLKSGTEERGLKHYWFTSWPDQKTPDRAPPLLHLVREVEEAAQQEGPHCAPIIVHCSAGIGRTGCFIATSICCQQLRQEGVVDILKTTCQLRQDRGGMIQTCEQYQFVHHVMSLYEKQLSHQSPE
Sequence of Tyrosine-protein phosphatase non-receptor type 11 (Q06124 whole entry): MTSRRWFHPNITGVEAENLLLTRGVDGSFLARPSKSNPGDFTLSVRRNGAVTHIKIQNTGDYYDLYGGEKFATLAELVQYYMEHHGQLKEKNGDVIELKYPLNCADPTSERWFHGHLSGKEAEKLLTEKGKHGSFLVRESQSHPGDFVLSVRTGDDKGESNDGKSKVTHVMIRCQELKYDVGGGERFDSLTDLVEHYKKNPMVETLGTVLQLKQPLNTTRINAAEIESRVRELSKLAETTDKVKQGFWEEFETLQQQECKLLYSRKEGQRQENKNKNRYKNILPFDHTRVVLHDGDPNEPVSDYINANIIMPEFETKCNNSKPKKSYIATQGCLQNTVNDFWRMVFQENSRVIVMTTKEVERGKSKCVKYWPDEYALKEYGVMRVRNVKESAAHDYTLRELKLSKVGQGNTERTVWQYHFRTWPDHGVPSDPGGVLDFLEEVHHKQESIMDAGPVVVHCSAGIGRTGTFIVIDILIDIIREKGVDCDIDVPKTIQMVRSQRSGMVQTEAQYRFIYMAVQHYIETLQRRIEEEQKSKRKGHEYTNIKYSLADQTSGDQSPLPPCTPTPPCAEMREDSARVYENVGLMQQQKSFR
Sequence of ATP-dependent molecular chaperone HSP82 (C4YTQ8 whole entry): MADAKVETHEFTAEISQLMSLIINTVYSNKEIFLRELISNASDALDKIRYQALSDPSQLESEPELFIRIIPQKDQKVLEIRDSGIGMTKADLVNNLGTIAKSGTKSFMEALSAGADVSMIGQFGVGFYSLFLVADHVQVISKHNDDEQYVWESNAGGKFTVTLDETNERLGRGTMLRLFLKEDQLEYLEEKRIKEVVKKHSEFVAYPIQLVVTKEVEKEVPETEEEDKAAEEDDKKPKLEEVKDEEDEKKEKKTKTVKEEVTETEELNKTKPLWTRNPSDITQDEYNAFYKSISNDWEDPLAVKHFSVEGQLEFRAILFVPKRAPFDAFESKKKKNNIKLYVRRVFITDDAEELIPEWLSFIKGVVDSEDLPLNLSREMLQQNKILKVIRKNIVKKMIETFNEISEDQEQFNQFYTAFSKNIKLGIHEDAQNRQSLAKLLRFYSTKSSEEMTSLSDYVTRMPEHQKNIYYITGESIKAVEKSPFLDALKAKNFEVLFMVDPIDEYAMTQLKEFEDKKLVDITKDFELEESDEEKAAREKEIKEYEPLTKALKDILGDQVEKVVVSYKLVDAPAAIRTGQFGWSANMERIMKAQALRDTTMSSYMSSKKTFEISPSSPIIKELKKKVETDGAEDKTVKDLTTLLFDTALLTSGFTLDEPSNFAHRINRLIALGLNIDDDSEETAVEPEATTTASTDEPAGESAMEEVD
Sequence of Ras and Rab interactor 1/Tyrosine-protein kinase ABL1 (P00519 whole entry): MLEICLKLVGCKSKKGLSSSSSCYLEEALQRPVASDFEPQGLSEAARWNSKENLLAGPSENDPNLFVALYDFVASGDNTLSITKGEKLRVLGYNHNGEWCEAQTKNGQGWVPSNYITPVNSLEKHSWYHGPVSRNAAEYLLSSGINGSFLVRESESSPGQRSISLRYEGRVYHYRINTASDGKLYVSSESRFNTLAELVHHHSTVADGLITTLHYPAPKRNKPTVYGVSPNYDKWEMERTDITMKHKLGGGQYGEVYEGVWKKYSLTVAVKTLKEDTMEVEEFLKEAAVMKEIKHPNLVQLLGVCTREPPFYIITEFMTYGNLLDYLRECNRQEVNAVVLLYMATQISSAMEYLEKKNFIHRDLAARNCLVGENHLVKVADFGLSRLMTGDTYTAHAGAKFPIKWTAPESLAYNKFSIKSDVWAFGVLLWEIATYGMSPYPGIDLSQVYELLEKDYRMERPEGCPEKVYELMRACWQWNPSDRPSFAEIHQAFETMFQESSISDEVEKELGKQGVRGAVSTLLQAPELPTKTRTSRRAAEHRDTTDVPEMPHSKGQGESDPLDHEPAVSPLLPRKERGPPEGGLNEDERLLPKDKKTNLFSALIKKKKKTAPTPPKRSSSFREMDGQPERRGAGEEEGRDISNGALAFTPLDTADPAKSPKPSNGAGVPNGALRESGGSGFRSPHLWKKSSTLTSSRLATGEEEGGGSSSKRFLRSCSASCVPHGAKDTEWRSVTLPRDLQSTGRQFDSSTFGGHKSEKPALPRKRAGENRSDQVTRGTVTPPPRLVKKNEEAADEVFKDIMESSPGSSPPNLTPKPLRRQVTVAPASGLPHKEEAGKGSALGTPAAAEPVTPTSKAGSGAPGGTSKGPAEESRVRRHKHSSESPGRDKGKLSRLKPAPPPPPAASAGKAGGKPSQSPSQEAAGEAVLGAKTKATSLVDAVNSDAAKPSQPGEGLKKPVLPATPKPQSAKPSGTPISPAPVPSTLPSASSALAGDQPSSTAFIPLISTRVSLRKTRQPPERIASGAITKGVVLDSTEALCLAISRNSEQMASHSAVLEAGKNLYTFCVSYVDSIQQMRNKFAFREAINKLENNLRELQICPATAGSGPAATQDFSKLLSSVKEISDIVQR
Sequence of Ras and Rab interactor 1/Tyrosine-protein kinase ABL1 (Q13671 whole entry): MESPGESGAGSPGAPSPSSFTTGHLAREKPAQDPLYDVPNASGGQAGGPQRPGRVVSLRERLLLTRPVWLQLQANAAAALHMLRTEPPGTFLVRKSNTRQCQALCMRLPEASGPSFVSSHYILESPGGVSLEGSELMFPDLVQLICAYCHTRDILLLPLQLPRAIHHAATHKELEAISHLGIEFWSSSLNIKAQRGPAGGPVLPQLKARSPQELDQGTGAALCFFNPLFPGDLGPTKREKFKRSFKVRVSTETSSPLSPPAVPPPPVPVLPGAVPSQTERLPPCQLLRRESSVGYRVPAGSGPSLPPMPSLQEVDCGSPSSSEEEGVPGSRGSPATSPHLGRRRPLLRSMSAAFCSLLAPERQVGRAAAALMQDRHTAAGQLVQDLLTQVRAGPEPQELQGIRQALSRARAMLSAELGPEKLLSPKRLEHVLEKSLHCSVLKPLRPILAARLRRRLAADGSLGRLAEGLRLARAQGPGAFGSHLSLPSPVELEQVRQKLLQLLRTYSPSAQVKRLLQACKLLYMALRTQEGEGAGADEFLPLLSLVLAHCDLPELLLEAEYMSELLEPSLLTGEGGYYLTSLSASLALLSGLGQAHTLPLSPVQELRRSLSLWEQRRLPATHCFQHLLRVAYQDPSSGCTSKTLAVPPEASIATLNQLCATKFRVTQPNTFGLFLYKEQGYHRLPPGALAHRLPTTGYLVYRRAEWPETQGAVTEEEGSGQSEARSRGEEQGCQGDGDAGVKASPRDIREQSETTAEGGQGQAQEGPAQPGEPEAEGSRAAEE
Sequence of Phospholipase A2 (P04054 whole entry): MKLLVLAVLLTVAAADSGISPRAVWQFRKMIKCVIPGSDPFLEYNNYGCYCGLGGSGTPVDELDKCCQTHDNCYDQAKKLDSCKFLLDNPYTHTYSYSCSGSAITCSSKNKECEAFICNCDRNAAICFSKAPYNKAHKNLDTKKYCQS
Sequence of Luciferin 4-monooxygenase (P08659 whole entry): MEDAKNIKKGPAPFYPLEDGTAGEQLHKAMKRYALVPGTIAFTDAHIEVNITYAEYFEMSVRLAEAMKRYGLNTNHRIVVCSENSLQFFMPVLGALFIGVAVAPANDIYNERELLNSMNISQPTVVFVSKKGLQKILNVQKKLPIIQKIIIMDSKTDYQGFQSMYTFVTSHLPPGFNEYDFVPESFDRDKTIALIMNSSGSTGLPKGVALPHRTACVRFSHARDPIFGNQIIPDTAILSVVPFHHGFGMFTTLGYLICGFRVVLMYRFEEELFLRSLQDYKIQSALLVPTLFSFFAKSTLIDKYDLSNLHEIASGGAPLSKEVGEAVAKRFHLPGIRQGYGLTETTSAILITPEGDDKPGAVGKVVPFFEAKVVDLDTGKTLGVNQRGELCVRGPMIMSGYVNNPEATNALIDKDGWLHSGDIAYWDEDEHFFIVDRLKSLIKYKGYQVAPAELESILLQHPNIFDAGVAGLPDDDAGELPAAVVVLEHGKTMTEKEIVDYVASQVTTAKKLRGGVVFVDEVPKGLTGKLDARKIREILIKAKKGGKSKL

Cc1ccc(S(=O)(=O)N2CCC(C(=O)NCc3ccccc3Cl)CC2)cc1
active: IC50 [1] 17.5 µM | IC50 [2] 9.46 µM

Cc1ccc(NC(=O)c2ccc3nc(N4CCOCC4)sc3c2)c(Cl)c1
active: IC50 [3] 1.97 µM | IC50 [4] 17.2 µM | IC50 [5] 0.804 µM

O=C(Oc1ccc(-c2nc(-c3ccccn3)no2)cc1)c1ccccc1
active: EC50 [6] 4.55 µM | EC50 [7] 3.19 µM | EC50 [8] 0.421 µM | EC50 [9] 0.475 µM | EC50 [10] 16.8 µM | EC50 [11] 3.96 µM | AC50 [12] 2.63 µM
inactive: EC50 [13] > 133 µM | IC50 [14] > 99 µM

Cc1ccc(NC(=O)C2C3/C=C\CCCCC32)cc1C (stereo not drawn)
active: CC50 [15] > 100 µM

Cc1ccc2c(c1)[C@@H]1CN(C)CC[C@@H]1N2C(=O)Nc1cccc(C(F)(F)F)c1
active: IC50 [16] 8.23 µM | IC50 [17] 6.31 µM

COC(=O)Nc1sc2c(c1C(N)=O)CCC(C)C2 (stereo not drawn)
active: IC50 [18] 1.9 µM | IC50 [19] 3.56 µM | IC50 [3] 1.81 µM | IC50 [4] 4.65 µM | IC50 [5] 0.312 µM
> 158 µM (not active): IC50 [20]

CC1(C)COCN1S(=O)(=O)c1ccc(C(=O)Nc2nnc(-c3ccc(Cl)s3)o2)cc1
inactive: EC50 [26] > 180 µM
active: EC50 [21] 68.5 µM | IC50 [22] 3.39 µM | EC50 [23] 0.691 µM | IC50 [24] 3.33 µM | EC50 [25] 0.308 µM | EC50 [27] 0.841 µM | IC50 [16] 13.8 µM | EC50 [28] 22.2 µM

Cc1ccc(C2N(c3cccc(Cl)c3)C(=O)N3CCCN23)cc1 (stereo not drawn)
inactive: IC50 [29] 11.1 µM
